# The SangsterLogP compilation
# Assay: from Suikov, S.; Kal'nits'kii, M.; Lutsik, O.; Plyushchakova, L.; Bondarenko, A.; Bogza, S.; Popov, A. (2007). Derivatives of 1,2,4-triazolo[4,3-b]pyridazin-6-ylhydrazine as a new training set for …
row,Structure (SMILES),logP
1,CC(=NN=c1ccc2nncn2[nH]1)c1ccc(C)cc1,2.2
2,CC(=NN=c1ccc2nncn2[nH]1)c1ccc(F)cc1,2.02
3,CC/C(=N/Nc1ccc2nncn2n1)c1ccccc1,2.15
4,CC(=NN=c1ccc2nncn2[nH]1)c1cccc(O)c1,1.46
5,CC(=NN=c1ccc2nncn2[nH]1)c1ccccc1O,1.89
6,COc1cccc(C(C)=NN=c2ccc3nncn3[nH]2)c1,1.97
7,COc1cc(C=NN=c2ccc3nncn3[nH]2)cc(OC)c1OC,1.53
8,CC(=NN=c1ccc2nncn2[nH]1)c1ccc(O)cc1,1.45
9,CC(=NN=c1ccc2nncn2[nH]1)c1ccccn1,1.15
10,COc1ccccc1C(C)=NN=c1ccc2nncn2[nH]1,1.94
11,CC(=NN=c1ccc2nncn2[nH]1)c1ccncc1,0.93
